Results on one molecule are retold here after ChEMBL document CHEMBL5625202, “Synthesis, characterization and anti-breast cancer activities of stachydrine derivatives” (Eur J Med Chem, 2023).

Data set [1] relates to 4T1. The data set can be described thus: Induction of apoptosis in mouse 4T1 cells assessed as decrease in Bcl2 expression at 10 uM incubated for 24 hrs by Western blot analysis. The class given is functional, cell-based. On the technique in general: In western blotting, separated proteins are transferred to a membrane and probed.
Data set [2] in a line: Toxicity in BALB/c mouse implanted with mouse 4T1 cells assessed as splenic edema at 0.2 mmol/Kg, po administered once every day for 14 days. The class given is organism-based. The conditions noted are these: in vivo, 336 h, time 14 day.
The nature of data set [3]: Toxicity in BALB/c mouse implanted with mouse 4T1 cells assessed as increase in ALT level at 0.2 mmol/Kg, po administered once every day for 14 days by routine blood analysis. The conditions noted are these: in vivo, 336 h, time 14 day. The class given is organism-based.
Data set [4] can be described thus: Toxicity in BALB/c mouse implanted with mouse 4T1 cells assessed as increase in white blood cells at 0.2 mmol/Kg, po administered once every day for 14 days by routine blood analysis. The data set is classed as organism-based. Particulars: in vivo, 336 h, time 14 day.
Data set [5] deals with 4T1. The data set can be described thus: Induction of apoptosis in mouse 4T1 cells assessed as increase in Bax expression at 10 uM incubated for 24 hrs by Western blot analysis. The class given is functional, cell-based.
Data set [6] can be described thus: Toxicity in BALB/c mouse implanted with mouse 4T1 cells assessed as blurred spleen morphology at 0.2 mmol/Kg, po administered once every day for 14 days. The class given is organism-based. The conditions noted are these: in vivo, 336 h, time 14 day.
The subject of data set [7] is 4T1. Put plainly: Induction of apoptosis in mouse 4T1 cells assessed as increase in cleaved caspase-3 expression at 10 uM incubated for 24 hrs by Western blot analysis. The data set is classed as functional, cell-based.
Data set [8] in a line: Toxicity in BALB/c mouse implanted with mouse 4T1 cells assessed as effect on BUN level at 0.2 mmol/Kg, po administered once every day for 14 days by routine blood analysis. The data set is classed as organism-based. The conditions noted are these: in vivo, 336 h, time 14 day.
Data set [9] in a line: Toxicity in BALB/c mouse implanted with mouse 4T1 cells assessed as change in lung histopathology at 0.2 mmol/Kg, po administered once every day for 14 days. The class given is organism-based. The conditions noted are these: in vivo, 336 h, time 14 day.
Data set [10] in a line: Toxicity in BALB/c mouse implanted with mouse 4T1 cells assessed as increase in spleen edema at 0.2 mmol/Kg, po administered once every day for 14 days relative to control. The data set is classed as organism-based. The conditions noted are these: in vivo, 336 h, time 14 day.
Data set [11] can be described thus: Prodrug conversion in Sprague-Dawley rat plasma assessed as Stachydrine release at 10 mg/kg, iv measured after 24 hrs by LC-MS/MS analysis. The class given is ADME, organism-based. The conditions noted are these: in vivo.
Data set [12] can be described thus: Toxicity in BALB/c mouse implanted with mouse 4T1 cells assessed as reduction in spleen index at 0.2 mmol/Kg, po administered once every day for 14 days relative to control. Further details: scale not given: the % may be the effect or the level left. The data set is classed as organism-based. The conditions noted are these: in vivo, 336 h, at 0.2 mmol/kg, time 14 day.

Data set [13] concerns 4T1. The data set can be described thus: Inhibition of cell migration in mouse 4T1 cells assessed as expansion of wound area at 30 micromol/mL incubated for 24 hrs by microscopic analysis. The data set is classed as functional, cell-based. The conditions noted are these: dose 30.0 µmol/ml.
Data set [14] is described as follows: Prodrug conversion in carboxylesterase (unknown origin) solution assessed as drug hydrolysis by measuring stachydrine release at 3 to 20 hrs. The data set is classed as ADME, Homo sapiens. Particulars: time 3-20 hrs.
Data set [15] relates to 4T1. Put plainly: Induction of cell cycle arrest in mouse 4T1 cells assessed as accumulation of cells in G0/G1 phase at 10 uM incubated for 24 hrs by flow cytometry relative to control. The class given is functional. A general note: Flow cytometry measures light scatter and fluorescence of single cells or particles in a stream.

Calls of active or inactive are those of the source. The rule behind the calls is not given here.

Take `CCCCCCCCCCCCOC(=O)C1CCC[N+]1(C)C.[Cl-]` (stereo not given): the result in data set [1], in data set [5] and in [7] was Active. The Activity entry in [2] is on record as “Toxic”; in data set [3], “Toxic”; in data set [4], “Non-Toxic”; in data set [6], “Toxic”; in [8], “Non-Toxic”; in data set [9], “Non-Toxic”. In addition, the Activity entry in data set [10] was “Toxic”; in data set [12] it was 60%; in data set [15] it was approximately 56%. Besides, the Drug metabolism entry in [11] and in data set [14] was “Metabolite_Detected” in each case. In addition, the inhibition result in data set [13] was “Active”.
